Several values for one entry are separate records, joined by “and”; a condition that tells them apart may be missing. Identical values can stand only once.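 Grown in 96-well plates, cells were treated for 48 hours with each compound at five concentrations. Insufficient inhibition: endpoint recorded as highest concentration tested. GI50 is the concentration that inhibits growth by half. Definition used: TGI = concentration required for complete inhibition of growth.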
Legend:
Assay in all cases: DTP human tumour cell line panel, 48 h
[1] = system: A549 NSCLC
[2] = system: PC-3 prostate
[3] = system: SK-OV-3 ovarian
[4] = system: IGROV1 ovarian
[5] = system: NCI-H522 lung
[6] = system: OVCAR-8 ovarian
[7] = system: OVCAR-5 ovarian
[8] = system: SF-295 CNS
[9] = system: SNB-19 CNS
[10] = system: BT-549 breast

C=C1[C@H](O)C[C@@H](C(C)C(O)CC=C(C)C)[C@@H](O)[C@@H]2C(C)=CC[C@@H]12 (stereo partly drawn)
GI50 [1]: > 100 µM | TGI [1]: > 100 µM | GI50 [2]: > 100 µM | TGI [2]: > 100 µM | GI50 [3]: > 100 µM | TGI [3]: > 100 µM | GI50 [4]: > 100 µM | TGI [4]: > 100 µM | GI50 [5]: 30.3 µM | TGI [5]: 86.4 µM | GI50 [6]: > 100 µM | TGI [6]: > 100 µM | GI50 [7]: > 100 µM | TGI [7]: > 100 µM | GI50 [8]: > 100 µM | TGI [8]: > 100 µM | GI50 [9]: > 100 µM | TGI [9]: > 100 µM | GI50 [10]: > 100 µM | TGI [10]: > 100 µM

C[C@H]1O[C@@H](O[C@H]2[C@@H](O)C[C@H](O[C@H]3[C@@H](O)C[C@H](O[C@H]4CC[C@]5(C)C6CC[C@]7(C)[C@@H](C8=CC(=O)OC8)CC[C@]7(O)C6CC[C@@H]5C4)O[C@@H]3C)O[C@@H]2C)C[C@H](O)[C@@H]1O (stereo partly drawn)
GI50 [1]: 0.00776 µM | TGI [1]: 0.0155 µM | GI50 [2]: 0.0194 µM | TGI [2]: 0.106 µM | GI50 [3]: 0.019 µM | TGI [3]: 0.067 µM | GI50 [4]: 0.0261 µM | TGI [4]: 2.22 µM | TGI [5]: 0.0319 µM | GI50 [6]: 0.0178 µM | TGI [6]: 0.0648 µM | GI50 [7]: 0.0383 µM | TGI [7]: 0.111 µM | GI50 [8]: 0.014 µM | TGI [8]: 0.0545 µM | GI50 [9]: 0.03 µM | TGI [9]: 0.0948 µM | GI50 [10]: 0.0163 µM | TGI [10]: 0.0508 µM

Cc1cc(S(=O)(=O)Nc2nc3ccccc3s2)c(SCc2ccccc2)cc1Cl
GI50 [1]: 13.9 µM | TGI [1]: 31.8 µM | GI50 [2]: 13.5 µM | TGI [2]: 28.8 µM | GI50 [3]: 32.4 µM | TGI [3]: 98.4 µM | GI50 [4]: 27.4 µM | TGI [4]: 94.3 µM | GI50 [5]: 31.5 µM | TGI [5]: > 100 µM | GI50 [6]: 17 µM | TGI [6]: 44.9 µM | GI50 [7]: 18.8 µM | TGI [7]: 36.7 µM | GI50 [8]: 11 µM | TGI [8]: 32.4 µM | GI50 [9]: 28.2 µM | TGI [9]: > 100 µM | GI50 [10]: 20.9 µM | TGI [10]: 60.5 µM

COc1ccc2c(c1)C(=O)CC(C(N)=O)C2 (stereo not drawn)
TGI [1]: > 100 µM | TGI [2]: > 100 µM | TGI [3]: > 100 µM | TGI [4]: > 100 µM | TGI [5]: > 100 µM | TGI [6]: > 100 µM | TGI [7]: > 100 µM | TGI [8]: > 100 µM | TGI [9]: > 100 µM | TGI [10]: > 100 µM

Nc1nc(N)c2c(n1)NC(c1ccc(Cl)cc1)C1CCc3ccccc3C1=N2 (stereo not drawn)
GI50 [1]: 11.8 µM | TGI [1]: 25 µM | GI50 [2]: 2.86 µM | TGI [2]: 14.5 µM | GI50 [3]: 11 µM | TGI [3]: 23 µM | GI50 [4]: 6.16 µM | TGI [4]: 20.4 µM | GI50 [5]: 5.21 µM | TGI [5]: 20.9 µM | GI50 [6]: 10.8 µM | TGI [6]: 43.1 µM | GI50 [7]: 14.9 µM | TGI [7]: 28.1 µM | GI50 [8]: 3.37 µM | TGI [8]: 14.7 µM | GI50 [9]: 16.8 µM | TGI [9]: 30.4 µM | GI50 [10]: 9.01 µM | TGI [10]: 22.6 µM

Cc1c(-c2c(F)cc(C(N)=O)c3[nH]c4c(c23)CC[C@H](C(C)(C)O)C4)cccc1-n1c(=O)c2cccc(F)c2n(C)c1=O
GI50 [1]: 2.05 µM | TGI [1]: > 100 µM | GI50 [2]: 2.67 µM | TGI [2]: > 100 µM | GI50 [3]: 6.35 µM | TGI [3]: > 100 µM | GI50 [4]: 3.19 µM | TGI [4]: > 100 µM | GI50 [5]: 2.81 µM | TGI [5]: 32.9 µM | GI50 [6]: 4.16 µM | TGI [6]: > 100 µM | GI50 [7]: 2.83 µM | TGI [7]: > 100 µM | GI50 [8]: 4.36 µM | TGI [8]: 39.6 µM | GI50 [9]: 7.22 µM | TGI [9]: > 100 µM | GI50 [10]: 3.93 µM | TGI [10]: 63 µM

Cc1cc(C2CC(O)C(CO)O2)c(Br)cc1Br (stereo not drawn)
GI50 [1]: > 100 µM | TGI [1]: > 100 µM | GI50 [2]: > 100 µM | TGI [2]: > 100 µM | GI50 [3]: > 100 µM | TGI [3]: > 100 µM | GI50 [4]: 33.8 µM | TGI [4]: > 100 µM | GI50 [5]: > 100 µM | TGI [5]: > 100 µM | GI50 [6]: > 100 µM | TGI [6]: > 100 µM | GI50 [7]: > 100 µM | TGI [7]: > 100 µM | GI50 [8]: > 100 µM | TGI [8]: > 100 µM | GI50 [9]: > 100 µM | TGI [9]: > 100 µM | GI50 [10]: > 100 µM | TGI [10]: > 100 µM

O=C(O)[C@@H](Cc1ccccc1)NS(=O)(=O)c1ccc(-c2ccccc2)cc1
GI50 [1]: > 100 µM | TGI [1]: > 100 µM | GI50 [2]: > 100 µM | TGI [2]: > 100 µM | GI50 [3]: > 100 µM | TGI [3]: > 100 µM | GI50 [4]: > 100 µM | TGI [4]: > 100 µM | GI50 [5]: > 100 µM | TGI [5]: > 100 µM | GI50 [6]: > 100 µM | TGI [6]: > 100 µM | GI50 [7]: > 100 µM | TGI [7]: > 100 µM | GI50 [8]: > 100 µM | TGI [8]: > 100 µM | GI50 [9]: > 100 µM | TGI [9]: > 100 µM | GI50 [10]: > 100 µM | TGI [10]: > 100 µM

Cc1ccc2c(c1)n([O-])c(C(F)(F)F)c(C(=O)c1ccco1)[n+]2=O
GI50 [1]: 0.965 µM | TGI [1]: 3.35 µM | GI50 [2]: 0.306 µM | TGI [2]: 4.82 µM | GI50 [3]: 1.59 µM | TGI [3]: 7.39 µM | GI50 [4]: 0.205 µM | TGI [4]: 9 µM | GI50 [5]: 1.42 µM | TGI [5]: 12.5 µM | GI50 [6]: 0.684 µM | TGI [6]: 2.64 µM | GI50 [7]: 1.72 µM | TGI [7]: 9.03 µM | GI50 [8]: 0.457 µM | TGI [8]: 1.97 µM | GI50 [9]: 1.47 µM | TGI [9]: 6.82 µM | GI50 [10]: 0.627 µM | TGI [10]: 4.21 µM

Nc1cc2c3ccccc3ccc2c2ccccc12
GI50 [1]: 23.9 µM | TGI [1]: > 100 µM | GI50 [2]: 7.78 µM | TGI [2]: > 100 µM | GI50 [3]: > 100 µM | TGI [3]: > 100 µM | GI50 [4]: > 100 µM | TGI [4]: > 100 µM | GI50 [5]: > 100 µM | TGI [5]: > 100 µM | GI50 [6]: > 44.6 µM | TGI [6]: > 100 µM | GI50 [7]: > 100 µM | TGI [7]: > 100 µM | GI50 [8]: > 100 µM | TGI [8]: > 100 µM | GI50 [9]: > 100 µM | TGI [9]: > 100 µM | GI50 [10]: > 77.1 µM | TGI [10]: > 100 µM

Cc1cc(C(=O)NOCCO)c(Nc2ccc(I)cc2F)n(C)c1=O
TGI [1]: > 100 µM | GI50 [2]: > 100 µM | TGI [2]: > 100 µM | GI50 [3]: > 10 µM and 51.6 µM | TGI [3]: > 100 µM | GI50 [4]: 0.00909 µM and 0.0178 µM | TGI [4]: > 100 µM | GI50 [5]: > 10 µM and 13.7 µM | TGI [5]: > 100 µM | GI50 [6]: > 36.5 µM | TGI [6]: > 100 µM | GI50 [7]: 0.00163 µM and < 0.0168 µM | TGI [7]: > 100 µM | GI50 [8]: > 100 µM | TGI [8]: > 100 µM | GI50 [9]: 6.08 µM | TGI [9]: > 100 µM | GI50 [10]: > 100 µM | TGI [10]: > 100 µM

Nc1ncnc2c1ncn2Cc1ccc(CCl)cc1
GI50 [1]: 17.1 µM | TGI [1]: 35.1 µM | GI50 [2]: 20.8 µM | TGI [2]: 73.1 µM | GI50 [3]: 19.7 µM | TGI [3]: 40.8 µM | GI50 [4]: 25.8 µM | TGI [4]: 66.5 µM | GI50 [5]: 24 µM | TGI [5]: 51.9 µM | GI50 [6]: 15.5 µM | TGI [6]: 31.5 µM | GI50 [7]: 18.8 µM | TGI [7]: 35.2 µM | GI50 [8]: 15.7 µM | TGI [8]: 34.4 µM | GI50 [9]: 16 µM | TGI [9]: 37.8 µM | GI50 [10]: 14.3 µM | TGI [10]: 28.7 µM

— PubChem BioAssay (NCI)
